Results from patent US20140120232A1, “ACID TASTE/ACID SMELL-REDUCING AGENT” (T. HASEGAWA CO., LTD., priority 2011, published 2014).

Assay: Sensory evaluation of Vermont drink containing the agent
Conditions: ten panels
Protocol: Water was added to a mixture of 10 g of apple-cider vinegar (acetic acid: 4.8%), 3 g of honey, 7 g of fructose-glucose liquid sugar mixed with sugar, 0.02 g of citric acid, 0.002 g of trisodium citrate, and 0.1 g of a Vermont flavor (manufactured by T. Hasegawa Co., Ltd.) to give a total amount of 100 mL. To the resulting mixture was added (Z,Z)-4,7-tridecadienal as the acid taste and/or acid smell-reducing agent of the present invention in concentrations shown in the following Table 1 to give Vermont drinks containing the agent.
Sensory evaluation of each drink was carried out by ten panels. […] The piercing aroma characteristic to aldehydes is a characteristic aroma common to every aldehyde and refers to an irritant off-smell giving an image of deteriorated oils and fats, soap, metals, Houttuynia cordata, etc. The judgment of smell was performed by comparing the effects at different concentrations of the acid taste and/or acid smell-reducing agent, and a concentration giving the highest acid taste/acid smell quality was selected. […]

Compound: CCCCC/C=C\C/C=C\C=C\C=O [(E,Z,Z)-2,4,7-tridecatrienal]
- A: number of panels, acid taste/acid smell extreme and cause irritation (0.005 ppt): 10
- B: number of panels, acid taste/acid smell slightly strong and slightly cause irritation (0.005 ppt): 0
- C: number of panels, acid taste/acid smell slightly unpleasant (0.005 ppt): 0
- Flavor judgment: number of panels who judged acid taste/acid smell quality the highest (0.005 ppt): 0
- N: number of panels, irritation of acid reduced to give a mild acid taste (0.005 ppt): 0
- X: number of panels, acid taste reduced but piercing odor characteristic to aldehydes unpleasant (0.005 ppt): 0
- A: number of panels, acid taste/acid smell extreme and cause irritation (0.02 ppt): 8
- B: number of panels, acid taste/acid smell slightly strong and slightly cause irritation (0.02 ppt): 1
- C: number of panels, acid taste/acid smell slightly unpleasant (0.02 ppt): 1
- Flavor judgment: number of panels who judged acid taste/acid smell quality the highest (0.02 ppt): 0
- N: number of panels, irritation of acid reduced to give a mild acid taste (0.02 ppt): 0
- X: number of panels, acid taste reduced but piercing odor characteristic to aldehydes unpleasant (0.02 ppt): 0
- A: number of panels, acid taste/acid smell extreme and cause irritation (0.1 ppt): 7
- B: number of panels, acid taste/acid smell slightly strong and slightly cause irritation (0.1 ppt): 2
- C: number of panels, acid taste/acid smell slightly unpleasant (0.1 ppt): 1
- Flavor judgment: number of panels who judged acid taste/acid smell quality the highest (0.1 ppt): 0
- N: number of panels, irritation of acid reduced to give a mild acid taste (0.1 ppt): 0
- X: number of panels, acid taste reduced but piercing odor characteristic to aldehydes unpleasant (0.1 ppt): 0
- A: number of panels, acid taste/acid smell extreme and cause irritation (0.2 ppt): 4
- B: number of panels, acid taste/acid smell slightly strong and slightly cause irritation (0.2 ppt): 3
- C: number of panels, acid taste/acid smell slightly unpleasant (0.2 ppt): 3
- Flavor judgment: number of panels who judged acid taste/acid smell quality the highest (0.2 ppt): 0
- N: number of panels, irritation of acid reduced to give a mild acid taste (0.2 ppt): 0
- X: number of panels, acid taste reduced but piercing odor characteristic to aldehydes unpleasant (0.2 ppt): 0
- A: number of panels, acid taste/acid smell extreme and cause irritation (0.5 ppt): 0
- B: number of panels, acid taste/acid smell slightly strong and slightly cause irritation (0.5 ppt): 1
- C: number of panels, acid taste/acid smell slightly unpleasant (0.5 ppt): 3
- Flavor judgment: number of panels who judged acid taste/acid smell quality the highest (0.5 ppt): 1
- N: number of panels, irritation of acid reduced to give a mild acid taste (0.5 ppt): 6
- X: number of panels, acid taste reduced but piercing odor characteristic to aldehydes unpleasant (0.5 ppt): 0
- A: number of panels, acid taste/acid smell extreme and cause irritation (1 ppb): 0
- B: number of panels, acid taste/acid smell slightly strong and slightly cause irritation (1 ppb): 0
- C: number of panels, acid taste/acid smell slightly unpleasant (1 ppb): 3
- Flavor judgment: number of panels who judged acid taste/acid smell quality the highest (1 ppb): 0
- N: number of panels, irritation of acid reduced to give a mild acid taste (1 ppb): 3
- X: number of panels, acid taste reduced but piercing odor characteristic to aldehydes unpleasant (1 ppb): 4
- A: number of panels, acid taste/acid smell extreme and cause irritation (1 ppt): 0
- B: number of panels, acid taste/acid smell slightly strong and slightly cause irritation (1 ppt): 1
- C: number of panels, acid taste/acid smell slightly unpleasant (1 ppt): 2
- Flavor judgment: number of panels who judged acid taste/acid smell quality the highest (1 ppt): 3
- N: number of panels, irritation of acid reduced to give a mild acid taste (1 ppt): 7
- X: number of panels, acid taste reduced but piercing odor characteristic to aldehydes unpleasant (1 ppt): 0
- A: number of panels, acid taste/acid smell extreme and cause irritation (5 ppt): 0
- B: number of panels, acid taste/acid smell slightly strong and slightly cause irritation (5 ppt): 0
- C: number of panels, acid taste/acid smell slightly unpleasant (5 ppt): 3
- Flavor judgment: number of panels who judged acid taste/acid smell quality the highest (5 ppt): 3
- N: number of panels, irritation of acid reduced to give a mild acid taste (5 ppt): 7
- X: number of panels, acid taste reduced but piercing odor characteristic to aldehydes unpleasant (5 ppt): 0
- A: number of panels, acid taste/acid smell extreme and cause irritation (10 ppb): 0
- B: number of panels, acid taste/acid smell slightly strong and slightly cause irritation (10 ppb): 0
- C: number of panels, acid taste/acid smell slightly unpleasant (10 ppb): 2
- Flavor judgment: number of panels who judged acid taste/acid smell quality the highest (10 ppb): 0
- N: number of panels, irritation of acid reduced to give a mild acid taste (10 ppb): 3
- X: number of panels, acid taste reduced but piercing odor characteristic to aldehydes unpleasant (10 ppb): 5
- A: number of panels, acid taste/acid smell extreme and cause irritation (20 ppt): 0
- B: number of panels, acid taste/acid smell slightly strong and slightly cause irritation (20 ppt): 0
- C: number of panels, acid taste/acid smell slightly unpleasant (20 ppt): 4
- Flavor judgment: number of panels who judged acid taste/acid smell quality the highest (20 ppt): 3
- N: number of panels, irritation of acid reduced to give a mild acid taste (20 ppt): 6
- X: number of panels, acid taste reduced but piercing odor characteristic to aldehydes unpleasant (20 ppt): 0
- A: number of panels, acid taste/acid smell extreme and cause irritation (50 ppb): 0
- B: number of panels, acid taste/acid smell slightly strong and slightly cause irritation (50 ppb): 0
- C: number of panels, acid taste/acid smell slightly unpleasant (50 ppb): 1
- Flavor judgment: number of panels who judged acid taste/acid smell quality the highest (50 ppb): 0
- N: number of panels, irritation of acid reduced to give a mild acid taste (50 ppb): 2
- X: number of panels, acid taste reduced but piercing odor characteristic to aldehydes unpleasant (50 ppb): 7
- A: number of panels, acid taste/acid smell extreme and cause irritation (100 ppt): 0
- B: number of panels, acid taste/acid smell slightly strong and slightly cause irritation (100 ppt): 2
- C: number of panels, acid taste/acid smell slightly unpleasant (100 ppt): 3
- Flavor judgment: number of panels who judged acid taste/acid smell quality the highest (100 ppt): 0
- N: number of panels, irritation of acid reduced to give a mild acid taste (100 ppt): 4
- X: number of panels, acid taste reduced but piercing odor characteristic to aldehydes unpleasant (100 ppt): 1
- A: number of panels, acid taste/acid smell extreme and cause irritation (500 ppt): 0
- B: number of panels, acid taste/acid smell slightly strong and slightly cause irritation (500 ppt): 0
- C: number of panels, acid taste/acid smell slightly unpleasant (500 ppt): 3
- Flavor judgment: number of panels who judged acid taste/acid smell quality the highest (500 ppt): 0
- N: number of panels, irritation of acid reduced to give a mild acid taste (500 ppt): 4
- X: number of panels, acid taste reduced but piercing odor characteristic to aldehydes unpleasant (500 ppt): 3
